The target of test [1] is T1, Histone deacetylase 2 (Homo sapiens, UniProt Q92769). The note with it: time 60.0 min.
The target of test [2] is T1, Histone deacetylase 2. The test can be described thus: Inhibition of full length C-terminal FLAG-tagged HDAC2 (unknown origin) assessed as inhibition constant (Ki) using (Ac-Leu-Gly-Lys(Ac)-AMC as substrate measured every 30 sec for 60 mins by fluorescence based assay.
The target of test [3] is T2, Histone deacetylase 1 (Homo sapiens, UniProt Q13547). The test can be described thus: Inhibition of full length C-terminal His-tagged HDAC1 (unknown origin) assessed as inhibition constant (Ki) using (Ac-Leu-Gly-Lys(Ac)-AMC as substrate measured every 30 sec for 60 mins by fluorescence based assay.
T2 sequence (Q13547 whole entry): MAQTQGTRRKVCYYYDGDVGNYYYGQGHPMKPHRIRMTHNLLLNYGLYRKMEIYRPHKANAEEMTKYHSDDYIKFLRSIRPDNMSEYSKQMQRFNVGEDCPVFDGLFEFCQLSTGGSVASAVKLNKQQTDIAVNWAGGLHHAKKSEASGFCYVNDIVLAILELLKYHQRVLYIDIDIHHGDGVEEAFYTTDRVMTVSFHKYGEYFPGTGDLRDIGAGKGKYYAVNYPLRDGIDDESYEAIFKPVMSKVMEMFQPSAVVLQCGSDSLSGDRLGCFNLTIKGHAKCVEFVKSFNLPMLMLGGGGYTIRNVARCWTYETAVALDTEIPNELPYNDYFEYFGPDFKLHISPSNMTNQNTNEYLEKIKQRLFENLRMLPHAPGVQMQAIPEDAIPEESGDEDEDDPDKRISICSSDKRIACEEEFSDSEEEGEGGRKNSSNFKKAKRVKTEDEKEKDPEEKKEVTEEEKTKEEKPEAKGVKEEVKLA
The target in test [4] is T2, Histone deacetylase 1. The test is described as follows: Inhibition of full length C-terminal His-tagged HDAC1 (unknown origin) using (Ac-Leu-Gly-Lys(Ac)-AMC as substrate preincubated with enzyme for 30 mins followed by substrate addition and measured after 30 mins by fluorescence based assay.
In test [5] the target is T2, Histone deacetylase 1. The test is described as follows: Inhibition of full length C-terminal His-tagged HDAC1 (unknown origin) using (Ac-Leu-Gly-Lys(Ac)-AMC as substrate preincubated with enzyme for 1 hrs followed by substrate addition and measured after 30 mins by fluorescence based assay.
The target in test [6] is T2, Histone deacetylase 1. The test can be described thus: Inhibition of full length C-terminal His-tagged HDAC1 (unknown origin) using (Ac-Leu-Gly-Lys(Ac)-AMC as substrate preincubated with enzyme for 2 hrs followed by substrate addition and measured after 30 mins by fluorescence based assay.
For test [7], the target named is T1, Histone deacetylase 2. The test can be described thus: Inhibition of full length C-terminal FLAG-tagged HDAC2 (unknown origin) using (Ac-Leu-Gly-Lys(Ac)-AMC as substrate preincubated with enzyme for 30 mins followed by substrate addition and measured after 30 mins by fluorescence based assay.
Test [8] has as its target T1, Histone deacetylase 2. The test can be described thus: Inhibition of full length C-terminal FLAG-tagged HDAC2 (unknown origin) using (Ac-Leu-Gly-Lys(Ac)-AMC as substrate preincubated with enzyme for 1 hrs followed by substrate addition and measured after 30 mins by fluorescence based assay.
In test [9] the target is T1, Histone deacetylase 2. The test is described as follows: Inhibition of full length C-terminal FLAG-tagged HDAC2 (unknown origin) using (Ac-Leu-Gly-Lys(Ac)-AMC as substrate preincubated with enzyme for 2 hrs followed by substrate addition and measured after 30 mins by fluorescence based assay.
Test [10] deals with T2, Histone deacetylase 1. The test can be described thus: Inhibition of full length C-terminal His-tagged HDAC1 (unknown origin) assessed as rate constant (k1) of EI complex using (Ac-Leu-Gly-Lys(Ac)-AMC as substrate measured every 30 sec for 60 mins by fluorescence based assay.
Test [11] concerns the target T1, Histone deacetylase 2. The test is described as follows: Inhibition of full length C-terminal FLAG-tagged HDAC2 (unknown origin) assessed as rate constant (k1) of EI complex using (Ac-Leu-Gly-Lys(Ac)-AMC as substrate measured every 30 sec for 60 mins by fluorescence based assay.
The target in test [12] is T2, Histone deacetylase 1. The test can be described thus: Inhibition of full length C-terminal His-tagged HDAC1 (unknown origin) assessed as rate constant (k-1) of EI complex using (Ac-Leu-Gly-Lys(Ac)-AMC as substrate measured every 30 sec for 60 mins by fluorescence based assay.
Test [13] addresses T1, Histone deacetylase 2. The test is described as follows: Inhibition of full length C-terminal FLAG-tagged HDAC2 (unknown origin) assessed as rate constant (k-1) of EI complex using (Ac-Leu-Gly-Lys(Ac)-AMC as substrate measured every 30 sec for 60 mins by fluorescence based assay.
Test [14] deals with T2, Histone deacetylase 1. The note with it: time 60.0 min.

T1 sequence (Q92769 whole entry): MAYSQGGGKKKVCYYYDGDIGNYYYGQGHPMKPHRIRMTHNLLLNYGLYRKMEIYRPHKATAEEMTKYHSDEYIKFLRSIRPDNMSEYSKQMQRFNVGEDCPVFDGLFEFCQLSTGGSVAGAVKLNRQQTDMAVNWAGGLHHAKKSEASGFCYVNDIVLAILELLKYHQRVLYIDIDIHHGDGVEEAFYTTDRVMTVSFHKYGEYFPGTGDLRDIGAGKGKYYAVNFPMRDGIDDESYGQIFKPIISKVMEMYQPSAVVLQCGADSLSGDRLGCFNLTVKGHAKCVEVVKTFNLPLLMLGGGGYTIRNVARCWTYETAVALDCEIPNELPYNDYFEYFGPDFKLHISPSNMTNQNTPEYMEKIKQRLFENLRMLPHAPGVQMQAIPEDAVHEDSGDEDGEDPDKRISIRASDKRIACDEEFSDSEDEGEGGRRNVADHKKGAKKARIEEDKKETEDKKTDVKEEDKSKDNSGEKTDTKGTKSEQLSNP

For `Nc1ccccc1NC(=O)c1ccc(CNC(=O)OCc2cccnc2)cc1`, in test [1], the T1/2 is more than 4 h.
In the case of `CCCNNC(=O)c1ccc(CNC(=O)/C=C/c2ccccc2)cc1`, the Ki in [2] was 103 nM; in test [3], 40 nM. The IC50 was 11.3 nM in test [4]; 7.07 nM in test [5]; 4.89 nM in test [6]; 48 nM in [7]; 24.8 nM in [8]; 14 nM in test [9]. Further, the K in [10] was 7.8 10^-5/nM/min; in [11], 5.1 10^-5/nM/min; in test [12] it was 3 10^-3/min; in test [13], 5 10^-3/min. Besides, the figures for the T1/2 in test [14] and in test [1] were 3.67 h and 2.17 h, respectively.

The term Ki denotes the dissociation constant of the complex between target and ligand, obtained from inhibition or displacement. One may read the IC50 as the concentration at which inhibition is half-maximal. Low values mean greater potency, high ones weaker potency.

Values taken from ChEMBL document CHEMBL5126568, “Determination of Slow-Binding HDAC Inhibitor Potency and Subclass Selectivity” (ACS Med Chem Lett, 2022).
